Measured values published in US6326395A, “Antifungal activity of dicationic molecules” (priority 1999, dated 2001).
Converted amounts (≈) assume the structure as drawn. Where a name gives a salt, the structure may show the parent alone. Read-outs that look alike come from different tables or passages of the source.

Tests used:
[1] = test system: Candida albicans; test: in vitro antifungal susceptibility testing (MIC, MFC; broth macrodilution), Tables 1-7; assay type: cell-based; settings: for MIC: read-out: MIC80 (Minimum inhibitory concentration 80%); for MFC: read-out: MFC (Minimum fungicidal concentration)
From the text: (§1) The fungi that were employed included two reference strains, C. neoformans var. neoformans H99 and C. albicans A39 and the following clinical isolates: (1) two strains of fluconazole-resistant C. neoformans var. neoformans (135.95 and 114.96); (2) two strains of C. neoformans var. gattii (119.95 and 114.95); (3) two strains of fluconazole-resistant C. albicans (102.96 and 103.96); and (4) one strain each of Torulopsis glabrata (142.91), Candida parapsilosis (111.96), Candida krusei (132.91), C. tropicalis (110.96), Candida lusitaniae (111.92), Fusarium solani (152.89), Aspergillus fumigatus (168.95), and Aspergillus flavus (112.96). Antifungal susceptibility testing was performed using an RPMI-1640 medium (Sigma Chemical Co., St. Louis, Mo.) with glutamine, without sodium bicarbonate, and buffered at pH 7.0 with 0.165 M morpholine-propanesulfonic acid (MOPS).
(§2) In vitro susceptibility testing in the form of Minimum Inhibitory Concentration (MIC) experiments were performed using the broth macrodilution method according to the recommendations of the National Committee for Clinical Laboratory Standards (see 1995 manual). The only difference compared to the standardized procedure was the choice of drug dilutions ranging from 100 to 0.09 μg/ml. Briefly, this procedure specifies an inoculum grown at 35° C. and adjusted to a concentration of 0.5-2.5×10^3 CFU/ml with an incubation of the test performed at 35° C. and reading at 48 hours for all yeasts except for C. neoformans which is interpreted at 72 hr.
(§3) Minimum Fungicidal Concentration (MFC) experiments were adapted from a method by McGinnis (McGinnis, M. R., (1980) "Susceptibility testing and bioassay procedure", p. 431, Academic Press, Inc., New York). Briefly, 10 μl aliquots from tubes with growth inhibition were plated onto Sabouraud agar plates.
(§4) The fungi that were employed included two quality control reference strains, C. neoformans var. neoformansH99 and C. albicans A39 and the following clinical isolates: (1) four strains of C. neoformans var. neoformans (167.95; 135.95; 114.96; and 133.95) of which three were fluconazole-resistant>64 μg/ml (135.95; 114.96; and 133.95); (2) two strains of C. neoformans var. gattii (119.95 and 114.95); (3) two strains of fluconazole-resistant>64 μg/ml C. albicans (102.96 and 103.96); and (4) one strain each of C. glabrata (142.91), Candida parapsilosis (111.96), Candida krusei (132.91), C. tropicalis (110.96), Candida lusitaniae (111.92), Fusarium solani (152.89), Aspergillus fumigatus (168.95), Rhizopus arrhizus (117.89), Paecilomyces lilacinus (137.90), and Aspergillus flavus (112.96). Antifungal susceptibility testing was performed using an RPMI-1640 medium (Sigma Chemical Co., St. Louis, Mo.) with glutamine, without sodium bicarbonate, and buffered at pH 7.0 with 0.165 M morpholinepropanesulfonic acid (MOPS).
(§5) Minimum Fungicidal Concentration (MFC) experiments were adapted from a method by McGinnis (McGinnis, M. R., (1980) "Susceptibility testing and bioassay procedure", p.431, Academic Press, Inc., New York). Briefly, 10 μl aliquots from tubes with growth inhibition were plated onto Sabouraud agar plates.

[2] = test system: Cryptococcus neoformans; test: as above; assay type: cell-based; settings: for MIC: read-out: MIC80 (Minimum inhibitory concentration 80%); for MFC: read-out: MFC (Minimum fungicidal concentration)
From the text: as §1, §2, §3, §4, §5

[3] = Tables 2-7, three or fewer colonies

Row | SMILES | MIC ([1]; 35° C., reading at 48 hours) | MFC ([1]; three or fewer colonies) | MIC ([2]; 35° C., 72 hr) | MFC [2, 3] | MIC ([1]; 48 h) | MFC [1] | MIC ([2]; 72 h) | MFC [2] | MFC (Minimum fungicidal concentration) [2, 3]
1 | N=C(N)c1cccc(-c2ccc(-c3cccc(C(=N)N)c3)o2)c1 [Compound 38] | 50 µg/mL (≈ 164 µM) | 100 µg/mL (≈ 329 µM) | 3.12 µg/mL (≈ 10.3 µM) | 25 µg/mL (≈ 82.1 µM) |  |  |  |  | 
2 | CC(C)NC(=N)c1cccc(-c2ccc(-c3cccc(C(=N)NC(C)C)c3)o2)c1 [Compound 40] | 100 µg/mL (≈ 257 µM) | > 100 µg/mL | 6.25 µg/mL (≈ 16.1 µM) | 6.25 µg/mL (≈ 16.1 µM) |  |  |  |  | 
3 | CN(C)CCNC(=N)c1cccc(-c2ccc(-c3cccc(C(=N)NCCN(C)C)c3)o2)c1 [Compound 41] | > 100 µg/mL |  | 12.5 µg/mL (≈ 28 µM) | 50 µg/mL (≈ 112 µM) |  |  |  |  | 
4 | N=C(N)c1ccc2nc(-c3ccc(-c4nc5ccc(C(=N)N)cc5[nH]4)cc3)[nH]c2c1 [Compound 47] | > 100 µg/mL |  | 0.39 µg/mL (≈ 0.989 µM) | 0.39 µg/mL (≈ 0.989 µM) |  |  |  |  | 
5 | c1cc2nc(-c3ccc(-c4nc5ccc(C6=NCCN6)cc5[nH]4)cc3)[nH]c2cc1C1=NCCN1 [Compound 48] | 0.78 µg/mL (≈ 1.75 µM) | 6.25 µg/mL (≈ 14 µM) | 0.78 µg/mL (≈ 1.75 µM) | 1.56 µg/mL (≈ 3.49 µM) |  |  |  |  | 
6 | c1cc2nc(-c3ccc(-c4nc5ccc(C6=NCCCN6)cc5[nH]4)cc3)[nH]c2cc1C1=NCCCN1 [Compound 49] | 1.56 µg/mL (≈ 3.29 µM) | 3.12 µg/mL (≈ 6.57 µM) | 0.78 µg/mL (≈ 1.64 µM) | 1.56 µg/mL (≈ 3.29 µM) |  |  |  |  | 
7 | Cc1cc(-c2nc3ccc(C(=N)N)cc3[nH]2)c(C)cc1-c1nc2ccc(C(=N)N)cc2[nH]1 [Compound 50] | 25 µg/mL (≈ 59.2 µM) | 100 µg/mL (≈ 237 µM) | 25 µg/mL (≈ 59.2 µM) | 25 µg/mL (≈ 59.2 µM) |  |  |  |  | 
8 | CC(C)NC(=N)c1ccc2nc(-c3ccc(CCc4ccc(-c5nc6ccc(C(=N)NC(C)C)cc6[nH]5)cc4)cc3)[nH]c2c1 [Compound 53, 4,4'-Bis[2-(5-N-isopropylamidino)benzimidazoyl]-1,2-diphenylethane hydrochloride] | 1.56 µg/mL | 6.25 µg/mL | 0.39 µg/mL | 0.78 µg/mL |  |  |  |  | 
9 | N=C(NC1CCCC1)c1ccc2nc(-c3ccc(-c4ccc(-c5ccc(-c6nc7ccc(C(=N)NC8CCCC8)cc7[nH]6)cc5)o4)cc3)[nH]c2c1 [Compound 54, 4,4'-Bis[2-(5-N-cyclopentylamidino)benzimidazoyl]-2,5-diphenylfuran hydrochloride] | 1.56 µg/mL | 1.56 µg/mL | 1.56 µg/mL | 6.25 µg/mL |  |  |  |  | 
10 | N=C(N)c1ccc2nc(-c3ccc4oc(-c5nc6ccc(C(=N)N)cc6[nH]5)cc4c3)[nH]c2c1 [Compound 55, 2,5-Bis[2-(5-amidino)benzimidazoyl]benzo[b]furan hydrochloride] | 0.39 µg/mL | 0.78 µg/mL | 0.19 µg/mL | 0.19 µg/mL |  |  |  |  | 
11 | N=C(NC1CCCC1)c1ccc2nc(-c3ccc4oc(-c5nc6ccc(C(=N)NC7CCCC7)cc6[nH]5)cc4c3)[nH]c2c1 [Compound 56, 2,5-Bis[2-(5-N-cyclopentylamidino)benzimidazoyl]benzo[b]furan hydrochloride] | 0.78 µg/mL | 0.78 µg/mL | 0.78 µg/mL | 0.78 µg/mL |  |  |  |  | 
12 | CN1CCN(c2ccc3nc(-c4ccc5nc(-c6ccc(O)cc6)[nH]c5c4)[nH]c3c2)CC1 [Compound 58] |  |  |  |  | 25 µg/mL (≈ 58.9 µM) | 50 µg/mL (≈ 118 µM) | 100 µg/mL (≈ 236 µM) | > 100 µg/mL | 
13 | COc1ccc(-c2nc3ccc(C4=NCCN4)cc3[nH]2)cc1 [Compound 59] | 25 µg/mL (≈ 85.5 µM) |  | 50 µg/mL (≈ 171 µM) | 100 µg/mL (≈ 342 µM) |  |  |  |  | 
14 | N=C(N)c1ccc(-c2nc3ccc(C(=N)N)cc3[nH]2)cc1 [Compound 60] | 100 µg/mL (≈ 359 µM) | > 100 µg/mL | 25 µg/mL (≈ 89.8 µM) | 50 µg/mL (≈ 180 µM) |  |  |  |  | 
15 | N=C(N)c1ccc2nc(-c3ccc(O)cc3)[nH]c2c1 [Compound 61] | > 100 µg/mL |  | > 100 µg/mL | > 100 µg/mL |  |  |  |  | 
16 | c1cc(-c2nc3ccc(C4=NCCN4)cc3[nH]2)ccc1C1=NCCN1 [Compound 62] | 50 µg/mL (≈ 151 µM) | > 100 µg/mL | 50 µg/mL (≈ 151 µM) |  |  |  |  |  | 
17 | c1cc(-c2nc3ccc(C4=NCCCN4)cc3[nH]2)ccc1C1=NCCCN1 [Compound 63] | 50 µg/mL (≈ 139 µM) | 100 µg/mL (≈ 279 µM) | 25 µg/mL (≈ 69.7 µM) | 50 µg/mL (≈ 139 µM) |  |  |  |  | 
18 | N=C(N)c1ccc(OCCCOc2ccc(-c3nc4ccc(C(=N)N)cc4[nH]3)cc2)cc1 [Compound 64] | 0.39 µg/mL (≈ 0.91 µM) | 0.78 µg/mL (≈ 1.82 µM) | 0.19 µg/mL (≈ 0.443 µM) | 0.78 µg/mL (≈ 1.82 µM) |  |  |  |  | 
19 | N=C(N)c1ccc(OCCCCOc2ccc(-c3nc4ccc(C(=N)N)cc4[nH]3)cc2)cc1 [Compound 65] | 0.39 µg/mL (≈ 0.881 µM) | 3.12 µg/mL (≈ 7.05 µM) | ≤ 0.09 µg/mL | 1.56 µg/mL (≈ 3.53 µM) |  |  |  |  | 
20 | N=C(N)c1ccc(OCCCCCOc2ccc(-c3nc4ccc(C(=N)N)cc4[nH]3)cc2)cc1 [Compound 66] | 0.78 µg/mL (≈ 1.71 µM) | 1.56 µg/mL (≈ 3.42 µM) | 0.39 µg/mL (≈ 0.854 µM) | 6.25 µg/mL (≈ 13.7 µM) |  |  |  |  | 
21 | N=C(N)c1ccc(Oc2ccc(-c3nc4ccc(C(=N)N)cc4[nH]3)cc2)cc1 [Compound 67] | 0.78 µg/mL (≈ 2.11 µM) | 0.78 µg/mL (≈ 2.11 µM) | 0.78 µg/mL (≈ 2.11 µM) | 6.25 µg/mL (≈ 16.9 µM) |  |  |  |  | 
22 | N=C(N)c1ccc(OCCCCCOc2ccc(C(=N)N)cc2)cc1 [Pentamidine, reference compound] |  |  |  |  | 0.78 µg/mL (≈ 2.29 µM) | 1.56 µg/mL (≈ 4.58 µM) | 3.12 µg/mL (≈ 9.16 µM) | 6.25 µg/mL (≈ 18.4 µM) | 6.25 µg/mL (≈ 18.4 µM)
